Assay results taken from patent US10807951B2, “mTORC1 modulators” (THE REGENTS OF THE UNIVERSITY OF CALIFORNIA, priority 2017, dated 2020).
Several values for one entry are separate records, joined by “and”; a condition that tells them apart may be missing. Identical values can stand only once. Entries after “also recorded” stand apart in the source; their conditions may differ. Like-named read-outs stand apart in the source and are kept apart here.

What was measured:
LAMTOR5 [1] = target: T1, LAMTOR5 (Homo sapiens, UniProt O43504); experiment: Competitive isoTOP-ABPP with purified mTORC1, Rag GTPase and Lamtor complexes; type: binding
Description: To identify the specific druggable hotspot targeted by YP 1-44 within the TORC1 complex, we performed a chemoproteomic study using isotopic tandem orthogonal proteolysis-enabled activity-based protein profiling (isoTOP-ABPP). IsoTOP-ABPP uses reactivity-based chemical probes to profile proteome-wide reactive, functional, and druggable hotspots directly in complex proteomes. When used in a competitive manner, small-molecule covalent ligands can be competed against the binding of reactivity-based probes to facilitate the identification of druggable hotspots targeted by lead covalent ligands (5-7) (FIG. 4A). Here, we pre-treated human purified mTORC1, Rag GTPase and Lamtor complexes with either vehicle or YP 1-44, and subsequently labeled this reconstituted system with a broad cysteine-reactive probe iodoacetamide-alkyne (IA-alkyne). Any accessible cysteine druggable hotspot would be labeled with the IA-alkyne probe in the vehicle-treated control, but the site bound by YP 1-44 would no longer accessible to IA-alkyne binding. Subsequently, we used copper-catalyzed azide-alkyne cycloaddition to append an isotopically light (for control) or heavy (for YP 1-44-treated) biotin-azide tag bearing a TEV protease recognition peptide onto probe-labeled proteins, upon which we combined the control and treated proteomes in a 1:1 ratio, followed by avidin-enrichment, tryptic digestion, and elution of probe-modified tryptic peptides by TEV protease. The resulting peptides were analyzed by LC-LC/MS/MS and light-to-heavy ratios of probe-modified peptides were quantified. We identified two cysteines within LAMTOR5, C148 and C23 that were labeled with ratios of 0.51 and 3.7, respectively. If YP 1-44 bound to a particular cysteine, we would expect a higher (>2) light-to-heavy ratio.
IsoTOP-ABPP analyses were performed using a modified version of our previously reported method (PMID 28352901, 28186401). We pre-treated human purified mTORC1, Rag GTPase and Lamtor complexes (5 micrograms each) with DMSO vehicle or YP 1-44 (50 μM) for 30 min at 37° C. in phosphate-buffered saline (PBS), and then labeled with IA-alkyne (100 μM) for 1 h at room temperature. They were subsequently treated with isotopically light (control) or heavy (treated) TEV-biotin (100 μM) and copper-catalyzed azide-alkyne cycloaddition (CuAAC). For analysis of cysteine reactivity in primary colorectal tumor tissue, tumors were pooled and incubated with either 100 μM IA-alkyne and isotopically heavy TEV-biotin or 10 μM IA-alkyne and isotopically light TEV-biotin followed by CuAAC. Proteins were precipitated over one hour and pelleted by centrifugation at 6500×g. Proteins were washed 3 times with cold methanol then denatured and resolubilized by heating in 1.2% SDS/PBS to 85° C. for 5 min. Insoluble components were precipitated by centrifugation at 6500×g and soluble proteome was diluted in 5 ml PBS, for a final concentration of 0.2% SDS. Labeled proteins were bound to avidin-agarose beads (170 μL resuspended beads/sample, Thermo Pierce) while rotating overnight at 4° C. Bead-linked proteins were enriched by washing three times each in PBS and water, then resuspended in 6 M urea/PBS (Sigma-Aldrich) and reduced in dithiothreitol (1 mM, Sigma-Aldrich), alkylated with iodoacetamide (18 mM, Sigma-Aldrich), then washed and resuspended in 2 M urea/PBS with 1 mM calcium chloride and trypsinized overnight with 0.5 μg/μl sequencing grade trypsin (Promega). […]

mTORC1 = mTORC1 signaling in HeLa cells by immunoblotting; type: cell-based; conditions: for mTORC1-mediated signaling (p-ULK1, pS6K1, p-4E-BP1): amino acid stimulation
Protocol: HeLa cells were subjected to starvation/refeeding protocols as described in the previous section, then lysed in ice-cold lysis buffer (150 mM NaCl, 20 mM HEPES [pH 7.4], 2 mM EDTA, 0.3% CHAPS or 1% Triton X-100, and one tablet of EDTA-free protease inhibitors per 50 ml). Cell lysates were cleared by centrifugation at 13,000 rpm for 10 minutes in a microfuge. Samples were normalized to a total concentration of 1 mg/mL protein and prepared using sample buffer at 1×, then boiled for 5 minutes at 95 C. Samples were loaded onto 10% or 12% SDS-Page gels, and analyzed by immunoblotting.
Several of these compounds were also directly tested for their ability to inhibit mTORC1 signaling in immunoblotting-based assays. […] Thus, we pursued CC 1-44 for further characterization.

LAMTOR5 [2] = target: T1, LAMTOR5; experiment: Gel-based ABPP against IA-alkyne labeling of pure LAMTOR5 protein; type: binding
Description: FIGS. 9A-9C. Potency and selectivity of YP 1-44 analogs. (FIG. 9A) initial YP 1-44 analogs and their relative potency against IA-alkyne labeling of pure human LAMTOR5 protein visualized by gel-based ABPP (a). Protein expression levels were also ascertained by silver staining (b). (FIG. 9B) Gel-based ABPP IA-alkyne cysteine-reactivity analysis of YP 1-44 analogs against Rag-Ragulator complex proteins (a). Protein expression levels were also ascertained by silver staining (b). (FIG. 9C) Hela whole cell proteome gel-based ABPP analysis of IA-alkyne cysteine-reactivity with YP 1-44 analogs (a). Protein expression levels were also ascertained by silver staining (b).
(§1) Thus, we performed medicinal chemistry to optimize the potency and selectivity of our initial hits by addition of further bulk to the core YP 1-44 scaffold (FIGS. 9A-9C; FIG. 5B). We initially screened these compounds against both LAMTOR5 and the Ragulator complex using gel-based ABPP methods competing the binding of these YP 1-44 analogs against IA-alkyne labeling of these proteins (FIG. 5C, FIG. 9). We also tested these compounds against Hela cell whole proteome cysteine reactivity to get initial read-outs of proteome-wide selectivity (FIGS. 9A-9C, FIG. 5D).

Hela whole cell proteome = experiment: Gel-based ABPP of IA-alkyne cysteine reactivity in Hela whole cell proteome
Description: as §1

[3] = compound 50 μM, IA-alkyne 100 μM, average of n=4

Row | Compound | LAMTOR5 cysteines targeted (isoTOP-ABPP) (LAMTOR5 [1]) | LAMTOR5 cysteines targeted (isoTOP-ABPP) (LAMTOR5 [1]; listed as CC-1-44) | phosphorylation of canonical mTORC1 substrates S6K1, 4E-BP1 and ULK1 (mTORC1; 10 μM) | potency of mTORC1 blockade relative to YP 1-44 (mTORC1; immunoblotting) | potency against IA-alkyne labeling of LAMTOR5 (LAMTOR5 [2]) | proteome-wide selectivity (displacement of IA-alkyne cysteine reactivity) (Hela whole cell proteome) | isoTOP-ABPP light-to-heavy ratio, LAMTOR5 C23 (LAMTOR5 [1]; [3]) | isoTOP-ABPP light-to-heavy ratio, LAMTOR5 C148 (LAMTOR5 [1]; [3]) | mTORC1-mediated signaling (p-ULK1, pS6K1, p-4E-BP1) (mTORC1) | mTORC1-mediated signaling (p-ULK1, pS6K1, p-4E-BP1) (mTORC1; listed as YP1-44)
1 | C=CC(=O)N1CCc2c(OCc3cc(C(F)(F)F)cc(C(F)(F)F)c3)cccc21 [CC 1-44] | modified C23 and C148 in LAMTOR5 | target C23 and C148 of LAMTOR5 | completely inhibited | potency comparable to YP 1-44 | desirable potency | selectivity at up to 1 mM; also recorded: apparent selectivity up to 1 mM | – | – | – | –
2 | C=CC(=O)n1ccc2ccccc21 [YP 1-44] | target C23 and C148 of LAMTOR5; also recorded: C23 of LAMTOR5 was the primary site; also recorded: modified C23 and C148 in LAMTOR5 | – | – | – | – | non-selectivity at 100 μM and above; also recorded: not sufficiently selective at higher concentrations (>100 μM) | > 3 and 3.7 | 0.51 | completely inhibited | suppresses mTORC1 activation by amino acids
